The source of these data is patent US20220282217A1, “COMPOSITIONS AND METHODS FOR PREPARING T CELL COMPOSITIONS AND USES THEREOF” (priority 2019, published 2022).

SMILES strings stand for the structures. Where a SMILES comes first, the peptide text is derived from it.

A word on the IC50: it is the concentration that inhibits the measured activity by half.

This assay concerns the target HLA-A03.01 (Homo sapiens, UniProt P04439). The assay can be described thus: Class I MHC peptide binding affinity (displacement of radiolabeled reference peptide). Particulars: allele A03.01; read-out: Observed Affinity (IC50; (nM)).

HLA-A03.01, sequence (P04439 25-365): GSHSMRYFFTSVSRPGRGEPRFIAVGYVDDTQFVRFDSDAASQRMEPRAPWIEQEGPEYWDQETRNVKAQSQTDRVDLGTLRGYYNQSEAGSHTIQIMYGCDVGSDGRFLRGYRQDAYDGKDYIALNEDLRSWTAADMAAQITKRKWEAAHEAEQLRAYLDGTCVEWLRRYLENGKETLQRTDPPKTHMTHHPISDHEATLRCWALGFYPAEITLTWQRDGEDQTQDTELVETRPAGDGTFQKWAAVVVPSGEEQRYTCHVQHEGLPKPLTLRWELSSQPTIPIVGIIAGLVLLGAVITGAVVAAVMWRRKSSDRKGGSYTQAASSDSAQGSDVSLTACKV
HLA-A03.01, sequence (P61769 21-119 partner): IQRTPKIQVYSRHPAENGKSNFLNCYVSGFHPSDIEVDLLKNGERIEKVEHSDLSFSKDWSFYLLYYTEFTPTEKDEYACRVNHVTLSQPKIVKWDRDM
Experimental: In brief, MHCI complexes were prepared and bound to radiolabeled reference peptides. Peptides were incubated at varying concentrations with these complexes for 2 days, and the amount of remaining radiolabeled peptide bound to WWI was measured using size exclusion gel-filtration.

`CC[C@H](C)[C@H](NC(=O)[C@H](CS)NC(=O)[C@H](Cc1ccccc1)NC(=O)[C@H](CC(N)=O)NC(=O)[C@H](C)NC(=O)[C@H](CC(C)C)NC(=O)[C@@H](N)CS)C(=O)N[C@@H](Cc1ccccc1)C(=O)N[C@@H](CC(N)=O)C(=O)N[C@@H](CCCNC(=N)N)C(=O)O`: the IC50 amounted to 222 nM.
The figure for `CC[C@H](C)[C@H](NC(=O)[C@H](C)NC(=O)[C@H](CS)NC(=O)[C@@H](NC(=O)[C@@H](N)Cc1ccc(O)cc1)[C@@H](C)O)C(=O)N[C@H](C(=O)N[C@H](C(=O)N[C@H](C(=O)N[C@@H](CCCCN)C(=O)O)C(C)C)[C@@H](C)O)[C@@H](C)O` is 122 nM.
As for `CC[C@H](C)[C@H](NC(=O)[C@H](C)N)C(=O)N[C@@H](CO)C(=O)N[C@H](C(=O)N[C@@H](CCCNC(=N)N)C(=O)N[C@@H](CC(=O)O)C(=O)N1CCC[C@H]1C(=O)N[C@@H](CC(C)C)C(=O)N[C@@H](CO)C(=O)N[C@@H](CCCCN)C(=O)O)[C@@H](C)O` (H-AISTRDPLSK-OH; N-terminus and C-terminus assumed), the IC50 amounted to 57.5 nM.
For `CC(C)C[C@H](NC(=O)[C@H](C)N)C(=O)N[C@@H](Cc1ccccc1)C(=O)N[C@@H](Cc1ccccc1)C(=O)N[C@@H](Cc1ccccc1)C(=O)N[C@@H](Cc1ccccc1)C(=O)N[C@@H](Cc1ccccc1)C(=O)N[C@@H](CCC(=O)O)C(=O)N[C@H](C(=O)N[C@@H](CCCCN)C(=O)O)[C@@H](C)O` (H-ALFFFFFETK-OH; N-terminus and C-terminus assumed) the value was 216 nM.
In the case of `CSCC[C@H](NC(=O)[C@H](C)N)C(=O)N[C@H](C(=O)N[C@H](C(=O)N[C@@H](CO)C(=O)N[C@@H](CO)C(=O)N[C@@H](CO)C(=O)N[C@@H](CCC(N)=O)C(=O)N[C@@H](CCCCN)C(=O)N[C@@H](CC(N)=O)C(=O)O)[C@@H](C)O)[C@@H](C)O` (H-AMTTSSSQKN-OH; N-terminus and C-terminus assumed), the IC50 came out at 2340 nM.
The figure for `CC(C)C[C@H](NC(=O)[C@@H](NC(=O)[C@@H](NC(=O)[C@@H](N)CS)[C@@H](C)O)[C@@H](C)O)C(=O)N[C@@H](CC(N)=O)C(=O)N[C@@H](CO)C(=O)N1CCC[C@H]1C(=O)N1CCC[C@H]1C(=O)N[C@@H](CC(C)C)C(=O)N[C@@H](CCCCN)C(=O)O` (H-CTTLNSPPLK-OH; N-terminus and C-terminus assumed) is 63.6 nM.
For `CC[C@H](C)[C@H](NC(=O)[C@H](Cc1c[nH]c2ccccc12)NC(=O)[C@H](CS)NC(=O)[C@H](Cc1ccccc1)NC(=O)[C@H](Cc1ccccc1)NC(=O)[C@@H](N)Cc1ccccc1)C(=O)N[C@@H](CC(C)C)C(=O)N[C@@H](CO)C(=O)N[C@@H](CS)C(=O)N[C@@H](CCCCN)C(=O)O` (H-FFFCWILSCK-OH; N-terminus and C-terminus assumed) the value was 597 nM; for `CSCC[C@H](NC(=O)[C@@H](NC(=O)[C@@H](N)Cc1ccccc1)C(C)C)C(=O)N[C@@H](CO)C(=O)N[C@@H](CC(=O)O)C(=O)N[C@H](C(=O)N[C@H](C(=O)N[C@@H](Cc1ccc(O)cc1)C(=O)N[C@@H](CCCCN)C(=O)O)[C@@H](C)O)[C@@H](C)O` (H-FVMSDTTYK-OH; N-terminus and C-terminus assumed), 66.9 nM; for `CC(C)C[C@H](NC(=O)[C@H](CCC(N)=O)NC(=O)[C@H](CC(C)C)NC(=O)[C@@H](N)Cc1c[nH]cn1)C(=O)N[C@@H](CCCCN)C(=O)N[C@@H](CO)C(=O)N[C@@H](CS)C(=O)N[C@@H](CCCNC(=N)N)C(=O)N[C@@H](CCCNC(=N)N)C(=O)N[C@@H](CCCCN)C(=O)O` (H-HLQLKSCRRK-OH; N-terminus and C-terminus assumed), 96.9 nM.
The figure for `CC[C@H](C)[C@H](N)C(=O)N[C@H](C(=O)N[C@H](C(=O)N[C@H](C(=O)N[C@@H](CCCCN)C(=O)N[C@@H](C)C(=O)N[C@H](C(=O)N[C@@H](CCC(=O)O)C(=O)N[C@H](C(=O)N[C@@H](CCCCN)C(=O)O)[C@@H](C)O)[C@@H](C)O)C(C)C)[C@@H](C)O)[C@@H](C)O` (H-ITTVKATETK-OH; N-terminus and C-terminus assumed) is 1250 nM; for `CC[C@H](C)[C@H](NC(=O)[C@@H](N)CCCCN)C(=O)N[C@@H](CO)C(=O)N[C@@H](CC(N)=O)C(=O)N[C@@H](Cc1c[nH]c2ccccc12)C(=O)N[C@@H](CO)C(=O)N[C@@H](CC(C)C)C(=O)N[C@@H](CCCCN)C(=O)N[C@@H](CCCCN)C(=O)N[C@H](C(=O)O)C(C)C` (H-KISNWSLKKV-OH; N-terminus and C-terminus assumed) it is 115 nM.
As to `CSCC[C@H](NC(=O)[C@H](CC(C)C)NC(=O)[C@@H](N)CCCCN)C(=O)N[C@@H](CC(C)C)C(=O)N[C@@H](CC(C)C)C(=O)N[C@@H](CCCNC(=N)N)C(=O)N[C@@H](CC(C)C)C(=O)N[C@@H](CC(N)=O)C(=O)N[C@@H](CC(C)C)C(=O)N[C@@H](CCCNC(=N)N)C(=O)O` (H-KLMLLRLNLR-OH; N-terminus and C-terminus assumed), the 50% inhibitory concentration (IC50) is 48.4 nM.
For `CSCC[C@H](NC(=O)[C@@H](N)CCCCN)C(=O)N[C@@H](CCCNC(=N)N)C(=O)N[C@@H](CCCCN)C(=O)N[C@@H](CCCCN)C(=O)N[C@@H](Cc1ccc(O)cc1)C(=O)N[C@@H](C)C(=O)N[C@@H](CCC(N)=O)C(=O)N[C@@H](CCCCN)C(=O)O` (H-KMRKKYAQK-OH; N-terminus and C-terminus assumed) the value was 5.7 nM; for `CC(C)[C@H](NC(=O)[C@H](CCCNC(=N)N)NC(=O)[C@@H](N)CCCCN)C(=O)N[C@@H](CC(N)=O)C(=O)N[C@H](C(=O)N[C@@H](C)C(=O)N[C@@H](Cc1c[nH]c2ccccc12)C(=O)N[C@@H](CCCCN)C(=O)N[C@H](C(=O)N[C@@H](CCCCN)C(=O)O)[C@@H](C)O)[C@@H](C)O` (H-KRVNTAWKTK-OH; N-terminus and C-terminus assumed), 332 nM.
The figure for `C[C@@H](O)[C@H](NC(=O)[C@H](CCC(=O)O)NC(=O)[C@H](CCCCN)NC(=O)[C@H](CCCCN)NC(=O)[C@H](CCCCN)NC(=O)[C@H](CO)NC(=O)[C@@H](N)CCCCN)C(=O)N[C@@H](Cc1ccccc1)C(=O)N[C@@H](CCCCN)C(=O)O` (H-KSKKKETFK-OH; N-terminus and C-terminus assumed) is 74.3 nM; for `C[C@@H](O)[C@H](NC(=O)[C@H](CCC(=O)O)NC(=O)[C@H](CCCCN)NC(=O)[C@H](CCCCN)NC(=O)[C@H](CCCCN)NC(=O)[C@H](CO)NC(=O)[C@@H](N)CCCCN)C(=O)N[C@@H](Cc1ccccc1)C(=O)N[C@@H](CCCCN)C(=O)N[C@@H](CCCCN)C(=O)O` (H-KSKKKETFKK-OH; N-terminus and C-terminus assumed) it is 39.6 nM; for `CC(C)C[C@H](NC(=O)[C@H](CCC(N)=O)NC(=O)[C@H](CC(C)C)NC(=O)[C@H](Cc1c[nH]cn1)NC(=O)[C@H](CC(N)=O)NC(=O)[C@H](CCC(N)=O)NC(=O)[C@H](CCCNC(=N)N)NC(=O)[C@H](CO)NC(=O)[C@@H](N)CCCCN)C(=O)N[C@@H](CCCCN)C(=O)O` (H-KSRQNHLQLK-OH; N-terminus and C-terminus assumed) it is 4.7 nM.
For `C[C@@H](O)[C@H](NC(=O)[C@@H](N)CCCCN)C(=O)N[C@@H](Cc1ccccc1)C(=O)N[C@@H](CCC(=O)O)C(=O)N[C@@H](CCCCN)C(=O)N[C@@H](CCCCN)C(=O)NCC(=O)N[C@@H](CCC(=O)O)C(=O)N[C@@H](CCCCN)C(=O)O` (H-KTFEKKGEK-OH; N-terminus and C-terminus assumed) the value was 32.2 nM.
